These results are taken from patent US5593678A, “Protection of teleost fish” (University of Georgia Research Foundation, priority 1994, dated 1997).

“Also recorded” adds a separate entry of the source. Where a name gives a salt, the structure may show the parent alone. Read-outs that look alike come from different tables or passages of the source.

For series [1], the system named is NCC (lysis of IM-9 target cells). The experiment in a line: NCC cytotoxicity (51Cr release) after treatment with protein kinase inhibitors. The conditions noted are these: for Percentage specific release: media control 25.9%; for activation at 30 µM / activation at 60 µM: read-out: Percentage increase (vs media control). In kind it is cell-based, channel catfish (Ictalurus punctatus). The procedure:
To prepare NCC, fish were lightly anesthetized with ethyl m-aminobenzoate (Sigma Chemical Co.) in water and sacrificed.
IM-9 target cells were used in cytotoxicity assays. […] Cells were grown in stationary suspension cultures and were maintained at approximately 1×10^6 cells/ml. […]

The next series relates to protein kinase C (PKC). The note with it: cited from earlier work.
In series [2] the test system is cyclic nucleotide dependent kinases. The note with it: cited from earlier work.
Series [3] deals with NCC (lysis of IM-9 target cells). The series is described as follows: Costimulation assay: NCC cytotoxicity (51Cr release) with A23187 or mab 5C6. The note with it: for activity at 60 µM: Ictalurus punctatus, IM-9, 2 h, mabs 1:50 dilution, H-7, HA1004 60 μM, genistein 0.5 μg/ml. In kind it is cell-based, channel catfish (Ictalurus punctatus). The procedure:
Incubation was two hours and cells were either washed or not washed before addition to ^51 Cr-labeled IM-9 target cells (4- to 6-hour cytotoxicity assays).
To further investigate this inhibitory effect, a costimulus experiment was done using a calcium ionophore, e.g., A23187, combined with the various inhibitors and activators of NCC activity. Pretreatment of NCC with A23187 produced an almost identical increase in cytotoxicity regardless of the identity of the first treatment.
In a second costimulus experiment mab 5C6 was used (instead of A23187) to activate cytotoxicity (Table 6).

For series [4], the system named is NCC membrane proteins (tyrosine phosphorylation). The experiment in a line: Tyrosine phosphorylation of NCC membrane proteins following mab 5C6 activation (Western blot). In kind it is cell-based, channel catfish (Ictalurus punctatus). The note with it: NCC pretreated two hours with inhibitor; 100 μg/ml genistein or 30 μM HA1004. As to the method:
FIG. 1. Tyrosine phosphorylation of NCC membrane proteins following activation by mab 5C6. NCC were resuspended at 500×10^6 /ml and 200 μl aliquots were incubated at 37° C. with either 125 μl ammonium sulfate precipitate mab 5C6 (left panel) or an isotype control (right panel). At the indicated timed intervals, the reactions were terminated by addition of 325 μl of 2×lysis buffer. Lysates were immunoprecipitated with mab 4G10, electrophoresed on 11% SDS-PAGE, blotted onto nitrocellulose, and probed with mab 4G10. Molecular weight markers are indicated by the arrows.
FIG. 2. Tyrosine phosphorylation of Percoll-enriched NCC. Fish NCC were centrifuged for 15 minutes at 500 g on a 45.5% Percoll cushion. The cells at the interphase were harvested, washed, and treated with mab 5C6 for 0 and 20 sec before addition of 2×lysis buffer. Lysates were electrophoresed, blotted on nitrocellulose, and probed with mab 4G10.
FIG. 3. Effects of genistein on tyrosine phosphorylation in fish NCC. Fish NCC were incubated with media, genistein (100 μg/ml), or HA1004 (30 μM) for two hours prior to activation for zero time with mab 5C6 (left lane) and 40 sec with either mab 5C6 (middle lane) or an irrelevant IgM isotype control (right lane). Reactions were stopped by addition of lysis buffer and lysates were processed as explained in the legends to FIGS. 1 and 2. […]
For orientation: Immunoblotting shows a protein as a band on a membrane.

The test system of another series is Na^+ /K^+ ATPase. The conditions noted are these: cited from earlier work.

For `CNCCNS(=O)(=O)c1cccc2cnccc12.Cl.Cl` [H-8, N-(2-(methylamino)ethyl)-5-isoquinolinesulfonamide di-HCl], in series [1], the “inhibition of NCC cytotoxicity” value was “time and dose dependent inhibition of NCC cytotoxicity”. Also, in series [1] (Ictalurus punctatus, 1.5 h, read-out: Percentage inhibition (NCC activity), 30 μM, 90 minutes, washed, E:T 80.1), the inhibition at 30 µM turned out to be 0%. Further, the inhibition at 60 µM in series [1] (Ictalurus punctatus, 1.5 h, read-out: Percentage inhibition (NCC activity), 60 μM, 90 minutes, washed, E:T 80.1) is 13.8%. Further, the inhibition at 150 µM in series [1] (Ictalurus punctatus, 1.5 h, read-out: Percentage inhibition (NCC activity), 150 μM, 90 minutes, washed, E:T 80.1) was found to be 36.9%. For the same compound, the inhibition at 300 µM in series [1] (Ictalurus punctatus, 1.5 h, read-out: Percentage inhibition (NCC activity), 300 μM, 90 minutes, washed, E:T 80.1) was determined as 46.5%. Besides, the “inhibition of NCC activity, comparison with H-7” value in series [1] (approximately 150 μM H-8, di-HCl) was “levels of inhibition comparable to that obtained with an approximately 30 μM concentration of H-7”. Moreover, in the series on protein kinase C (PKC) (di-HCl), the “effect on protein kinase C” value is on record as “almost no effect on PKC activity; also recorded: limited effect on PKC”. In addition, the “inhibition of cyclic nucleotide dependent kinases” value in series [2] is recorded as “more inhibitory of cyclic nucleotide dependent kinases”.
As to `N=C(N)NCCNS(=O)(=O)c1cccc2cnccc12` [HA1004, N-(2-guanidoethyl)-5-isoquinolinesulfonamide di-HCl], in series [1], the “effect of removal (washing) of inhibitor on cytotoxicity” value is “did not reduce the augmentation of cytotoxicity”. Also, the Percentage specific release in series [1] (30 μM, 60 min) came out at 38.7%; in series [1] (30 μM, 120 min), 39.0%; in series [1] (30 μM, 180 min/wash) it was 36.0%; in series [1] (30 μM, 180 min) it was 35.9%; in series [1] (60 μM, 60 min), 38.5%; in series [1] (60 μM, 120 min), 36.9%. In addition, the Percentage specific release in series [1] (60 μM, 180 min/wash) came out at 34.2%; in series [1] (60 μM, 180 min), 36.5%; in series [3] (E:T 40:1, 10^-4 M A23187, 60 μM H7 and HA1004, 0.5 μg/ml genistein, 1:3 dilution of tissue culture supernatant, media control 20.6), 33.2%. The activation at 30 µM came out at 49.2% in series [1] (Ictalurus punctatus, 1 h, 30 μM, 60 min); 50.2% in series [1] (Ictalurus punctatus, 2 h, 30 μM, 120 min); 38.7% in series [1] (Ictalurus punctatus, 3 h, 30 μM, 180 min/wash); 38.5% in series [1] (Ictalurus punctatus, 3 h, 30 μM, 180 min). Besides, the activation at 60 µM in series [1] (Ictalurus punctatus, 1 h, 60 μM, 60 min) was found to be 48.3%; in series [1] (Ictalurus punctatus, 2 h, 60 μM, 120 min), 42.1%; in series [1] (Ictalurus punctatus, 3 h, 60 μM, 180 min/wash) it was 31.8%; in series [1] (Ictalurus punctatus, 3 h, 60 μM, 180 min), 40.6%. In addition, the activity at 60 µM in series [3] (4 × 10^6 NCC/ml, read-out: Percentage of control (E:T ratio) 40%) was 211%; in series [3] (read-out: Percentage of control (E:T ratio) 20%), 243%. For the same compound, in series [3] (pretreatment prior to A23187, di-HCl), the “influence of pretreatment on A23187 activation” value was “did not appear to be additive and did not influence the final level of activation”. Further, the “specific protein phosphorylation after mab 5C6” value in series [4] is given as “did occur”. In addition, in the series with protein kinase C (PKC), the “effect on protein kinase C” value is on record as “no effect on PKC”. Moreover, the “inhibition of cyclic nucleotide dependent kinases” value in series [2] is listed as “inhibits mostly cyclic nucleotide dependent kinases”.
For `[O]=[V+2]` [vanadyl ion, vanadyl (IV) ion], in the series with Na^+ /K^+ ATPase, the “Na^+ /K^+ ATPase inhibition” value is “little effect”.

A word on the inhibition: it is the share of the control response that was lost under treatment.
